Results reported in patent US12275731B2, “Azaindole inhibitors of wild-type and mutant forms of LRRK2” (DANA-FARBER CANCER INSTITUTE, INC., priority 2018, dated 2025).

Tests used:
Experiment in all cases: KinomeScan profiling
Type in all cases: binding
[1] = biological target: EPHA5 (Homo sapiens, UniProt P54756); conditions: EPHA5, 1 μM; read-out: % control
Procedure, shortened: (§1)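 Single-point competition binding screen: 1 μM, DMSO, 468 kinases. Results reported as % control from RLU, normalised to DMSO and positive-control wells. Activity threshold: <35% control.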

[2] = biological target: NIK (Homo sapiens, UniProt Q99558); conditions: read-out: % control
Procedure, shortened: as §1

[3] = biological target: T1, INSR (Homo sapiens, UniProt P06213); conditions: read-out: % control
T1 construct: purchased KinomeScan®
Procedure, shortened: as §1

[4] = biological target: CAMK1D (Homo sapiens, UniProt Q8IU85); conditions: read-out: % control
Procedure, shortened: as §1

[5] = biological target: T2, MLCK (Homo sapiens, UniProt Q32MK0); conditions: read-out: % control
T2 sequence (Q32MK0 1-819): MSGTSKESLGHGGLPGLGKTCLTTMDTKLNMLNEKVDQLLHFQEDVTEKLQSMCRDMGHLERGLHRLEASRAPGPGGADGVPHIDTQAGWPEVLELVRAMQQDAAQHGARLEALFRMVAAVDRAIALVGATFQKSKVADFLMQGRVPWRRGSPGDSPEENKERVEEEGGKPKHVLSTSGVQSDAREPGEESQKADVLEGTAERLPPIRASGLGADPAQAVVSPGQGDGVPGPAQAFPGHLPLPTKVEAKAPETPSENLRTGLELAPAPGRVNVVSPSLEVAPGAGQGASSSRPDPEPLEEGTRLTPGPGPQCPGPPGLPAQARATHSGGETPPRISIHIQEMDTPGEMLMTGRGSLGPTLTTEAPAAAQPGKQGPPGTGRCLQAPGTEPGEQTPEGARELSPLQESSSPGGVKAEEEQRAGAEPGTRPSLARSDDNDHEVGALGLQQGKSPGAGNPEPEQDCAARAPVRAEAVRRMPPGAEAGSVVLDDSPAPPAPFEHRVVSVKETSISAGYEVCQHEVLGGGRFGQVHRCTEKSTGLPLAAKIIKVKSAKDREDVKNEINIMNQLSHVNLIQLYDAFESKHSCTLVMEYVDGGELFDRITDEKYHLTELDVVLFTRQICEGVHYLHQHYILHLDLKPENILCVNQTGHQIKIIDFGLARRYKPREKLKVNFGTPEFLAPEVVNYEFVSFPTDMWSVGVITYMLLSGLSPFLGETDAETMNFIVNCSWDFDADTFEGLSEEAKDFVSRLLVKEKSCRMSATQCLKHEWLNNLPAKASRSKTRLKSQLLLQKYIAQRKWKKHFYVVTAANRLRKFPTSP
Procedure, shortened: as §1

[6] = biological target: PRP4 (Homo sapiens, UniProt Q13523); conditions: PRP4, 1 μM; read-out: % control
Procedure, shortened: as §1

[7] = biological target: T3, PIK3CA(H1047L) (Homo sapiens, UniProt P42336, H1047L); conditions: read-out: % control
T3 construct: purchased KinomeScan® (panel service)
Procedure, shortened: as §1

[8] = biological target: T4, GAK (Homo sapiens, UniProt O14976); conditions: read-out: % control
T4 sequence (O14976 1-1311): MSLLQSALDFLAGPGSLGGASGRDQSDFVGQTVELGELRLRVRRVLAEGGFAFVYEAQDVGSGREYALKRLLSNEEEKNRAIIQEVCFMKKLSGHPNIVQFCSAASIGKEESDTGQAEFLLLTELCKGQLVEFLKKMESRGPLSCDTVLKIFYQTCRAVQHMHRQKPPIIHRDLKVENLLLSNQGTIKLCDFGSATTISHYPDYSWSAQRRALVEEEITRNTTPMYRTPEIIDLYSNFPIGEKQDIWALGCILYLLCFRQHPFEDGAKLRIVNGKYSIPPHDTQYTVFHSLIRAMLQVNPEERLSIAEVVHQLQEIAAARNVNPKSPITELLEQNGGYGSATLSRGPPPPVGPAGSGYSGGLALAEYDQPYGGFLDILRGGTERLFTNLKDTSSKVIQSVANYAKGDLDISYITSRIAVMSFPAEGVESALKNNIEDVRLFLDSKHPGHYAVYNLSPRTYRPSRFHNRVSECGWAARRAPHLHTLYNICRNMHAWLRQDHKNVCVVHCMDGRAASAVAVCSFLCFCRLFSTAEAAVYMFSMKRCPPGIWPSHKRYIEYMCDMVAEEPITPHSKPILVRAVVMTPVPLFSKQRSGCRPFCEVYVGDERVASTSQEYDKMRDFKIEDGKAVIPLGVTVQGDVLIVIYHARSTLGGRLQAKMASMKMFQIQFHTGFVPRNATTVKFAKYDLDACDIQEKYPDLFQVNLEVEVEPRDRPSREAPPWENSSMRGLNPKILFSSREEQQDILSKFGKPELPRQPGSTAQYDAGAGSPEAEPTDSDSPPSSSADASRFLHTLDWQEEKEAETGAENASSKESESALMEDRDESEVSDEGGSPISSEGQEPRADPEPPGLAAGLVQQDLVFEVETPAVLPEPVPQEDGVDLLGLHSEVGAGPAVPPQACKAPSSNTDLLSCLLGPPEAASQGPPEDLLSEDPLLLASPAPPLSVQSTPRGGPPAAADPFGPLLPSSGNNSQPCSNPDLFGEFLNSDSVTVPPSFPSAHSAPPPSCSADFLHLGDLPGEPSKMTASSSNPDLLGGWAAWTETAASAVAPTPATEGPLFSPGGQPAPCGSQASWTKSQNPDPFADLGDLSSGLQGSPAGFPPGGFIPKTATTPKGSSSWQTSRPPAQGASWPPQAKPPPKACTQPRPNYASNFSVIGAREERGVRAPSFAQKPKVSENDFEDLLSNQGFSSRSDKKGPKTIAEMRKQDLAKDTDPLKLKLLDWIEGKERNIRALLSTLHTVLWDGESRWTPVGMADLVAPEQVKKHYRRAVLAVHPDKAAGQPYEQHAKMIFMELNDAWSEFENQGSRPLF
Procedure, shortened: as §1

[9] = biological target: CDK4-cyclinD1 (Homo sapiens, UniProt P11802); conditions: CDK4-cyclinD1, 1 μM; read-out: % control
Procedure, shortened: as §1

[10] = biological target: T5, SRMS (Homo sapiens, UniProt Q9H3Y6); conditions: read-out: % control
T5 construct: purchased KinomeScan® (panel service)
Procedure, shortened: as §1

T1 sequence (P06213 28-1382): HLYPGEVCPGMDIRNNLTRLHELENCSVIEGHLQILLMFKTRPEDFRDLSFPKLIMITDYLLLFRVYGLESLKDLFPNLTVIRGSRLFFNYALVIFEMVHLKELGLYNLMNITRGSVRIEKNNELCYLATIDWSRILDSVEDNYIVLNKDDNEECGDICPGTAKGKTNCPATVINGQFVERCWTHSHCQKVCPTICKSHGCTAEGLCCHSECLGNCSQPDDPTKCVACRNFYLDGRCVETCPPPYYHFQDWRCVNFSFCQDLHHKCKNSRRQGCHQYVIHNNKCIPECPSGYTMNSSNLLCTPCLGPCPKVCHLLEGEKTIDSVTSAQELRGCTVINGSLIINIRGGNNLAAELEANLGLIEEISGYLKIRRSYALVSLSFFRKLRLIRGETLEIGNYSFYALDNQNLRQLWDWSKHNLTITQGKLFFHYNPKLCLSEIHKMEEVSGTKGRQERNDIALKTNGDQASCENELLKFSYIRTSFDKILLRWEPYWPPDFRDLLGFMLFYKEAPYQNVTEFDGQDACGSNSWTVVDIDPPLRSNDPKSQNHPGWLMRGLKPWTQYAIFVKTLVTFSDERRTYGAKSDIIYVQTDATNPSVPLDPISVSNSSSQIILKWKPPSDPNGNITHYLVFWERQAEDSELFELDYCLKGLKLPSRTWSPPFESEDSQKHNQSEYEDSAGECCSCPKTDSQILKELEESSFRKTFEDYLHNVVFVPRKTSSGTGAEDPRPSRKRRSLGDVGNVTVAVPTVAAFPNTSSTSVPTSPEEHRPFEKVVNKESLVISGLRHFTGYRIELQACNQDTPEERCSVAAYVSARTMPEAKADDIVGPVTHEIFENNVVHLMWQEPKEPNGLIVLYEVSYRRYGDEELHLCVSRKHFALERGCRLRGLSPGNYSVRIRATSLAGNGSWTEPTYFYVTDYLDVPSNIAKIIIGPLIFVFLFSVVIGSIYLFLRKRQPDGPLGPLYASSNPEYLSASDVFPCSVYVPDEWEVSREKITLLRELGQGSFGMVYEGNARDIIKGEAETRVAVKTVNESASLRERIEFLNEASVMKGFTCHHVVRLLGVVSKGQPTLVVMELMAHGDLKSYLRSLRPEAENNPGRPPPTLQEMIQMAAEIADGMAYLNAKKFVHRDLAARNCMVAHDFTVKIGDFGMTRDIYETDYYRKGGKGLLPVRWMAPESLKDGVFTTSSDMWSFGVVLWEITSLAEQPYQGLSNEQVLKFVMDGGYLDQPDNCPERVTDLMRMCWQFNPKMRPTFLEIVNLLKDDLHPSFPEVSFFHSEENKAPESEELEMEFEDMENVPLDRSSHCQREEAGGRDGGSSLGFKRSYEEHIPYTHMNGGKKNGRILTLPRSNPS
CAMK1D, sequence (Q8IU85 whole entry): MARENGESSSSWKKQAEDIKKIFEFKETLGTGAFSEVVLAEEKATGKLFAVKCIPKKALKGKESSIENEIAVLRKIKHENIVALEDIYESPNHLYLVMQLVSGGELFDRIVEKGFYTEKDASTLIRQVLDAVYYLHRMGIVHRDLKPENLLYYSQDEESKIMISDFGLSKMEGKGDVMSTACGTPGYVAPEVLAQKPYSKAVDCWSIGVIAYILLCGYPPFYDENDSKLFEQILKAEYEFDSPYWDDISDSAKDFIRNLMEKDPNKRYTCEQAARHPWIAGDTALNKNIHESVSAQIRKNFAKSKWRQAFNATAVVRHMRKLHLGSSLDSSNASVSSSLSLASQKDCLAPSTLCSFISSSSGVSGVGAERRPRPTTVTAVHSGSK
NIK, sequence (Q99558 whole entry): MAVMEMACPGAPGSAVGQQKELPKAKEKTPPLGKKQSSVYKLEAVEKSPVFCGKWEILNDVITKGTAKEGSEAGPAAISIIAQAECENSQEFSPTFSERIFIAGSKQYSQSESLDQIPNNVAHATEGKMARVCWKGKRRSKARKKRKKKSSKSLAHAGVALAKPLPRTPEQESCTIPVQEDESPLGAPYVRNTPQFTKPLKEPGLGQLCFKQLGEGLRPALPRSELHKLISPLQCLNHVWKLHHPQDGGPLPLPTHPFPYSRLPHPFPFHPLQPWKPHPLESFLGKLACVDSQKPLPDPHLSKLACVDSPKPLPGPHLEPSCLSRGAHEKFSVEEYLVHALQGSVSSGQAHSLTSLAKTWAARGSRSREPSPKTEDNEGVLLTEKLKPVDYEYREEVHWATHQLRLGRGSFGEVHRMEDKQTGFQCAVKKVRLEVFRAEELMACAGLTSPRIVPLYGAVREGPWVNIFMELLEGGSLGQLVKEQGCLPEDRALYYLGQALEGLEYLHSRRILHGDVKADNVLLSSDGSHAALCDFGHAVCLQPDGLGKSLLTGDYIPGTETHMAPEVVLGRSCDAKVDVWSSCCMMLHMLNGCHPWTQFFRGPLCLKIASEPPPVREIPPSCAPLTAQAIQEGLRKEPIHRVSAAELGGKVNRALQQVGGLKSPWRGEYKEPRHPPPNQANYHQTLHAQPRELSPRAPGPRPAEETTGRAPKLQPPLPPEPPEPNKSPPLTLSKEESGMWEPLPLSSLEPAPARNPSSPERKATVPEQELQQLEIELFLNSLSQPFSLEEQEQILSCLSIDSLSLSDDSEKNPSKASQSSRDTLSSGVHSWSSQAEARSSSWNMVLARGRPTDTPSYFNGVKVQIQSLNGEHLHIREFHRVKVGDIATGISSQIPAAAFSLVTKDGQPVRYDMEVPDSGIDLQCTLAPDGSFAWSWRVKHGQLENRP
CDK4-cyclinD1, sequence (P11802 whole entry): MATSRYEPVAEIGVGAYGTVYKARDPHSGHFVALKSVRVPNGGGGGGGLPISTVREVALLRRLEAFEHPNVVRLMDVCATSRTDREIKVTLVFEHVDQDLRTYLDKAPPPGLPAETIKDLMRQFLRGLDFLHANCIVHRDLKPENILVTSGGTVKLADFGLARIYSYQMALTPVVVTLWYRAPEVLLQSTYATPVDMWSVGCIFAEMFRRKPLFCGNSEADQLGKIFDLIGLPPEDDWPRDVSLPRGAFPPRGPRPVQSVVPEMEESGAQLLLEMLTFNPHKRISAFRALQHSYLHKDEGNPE
CDK4-cyclinD1, sequence (P24385 whole entry partner): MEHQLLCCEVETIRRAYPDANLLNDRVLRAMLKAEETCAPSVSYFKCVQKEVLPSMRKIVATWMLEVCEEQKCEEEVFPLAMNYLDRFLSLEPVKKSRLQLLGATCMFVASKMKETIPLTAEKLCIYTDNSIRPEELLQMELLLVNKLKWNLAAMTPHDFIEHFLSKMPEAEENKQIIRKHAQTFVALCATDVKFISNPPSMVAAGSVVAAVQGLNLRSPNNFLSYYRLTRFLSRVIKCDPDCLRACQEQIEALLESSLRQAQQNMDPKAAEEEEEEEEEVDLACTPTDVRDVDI
T5 sequence (Q9H3Y6 whole entry): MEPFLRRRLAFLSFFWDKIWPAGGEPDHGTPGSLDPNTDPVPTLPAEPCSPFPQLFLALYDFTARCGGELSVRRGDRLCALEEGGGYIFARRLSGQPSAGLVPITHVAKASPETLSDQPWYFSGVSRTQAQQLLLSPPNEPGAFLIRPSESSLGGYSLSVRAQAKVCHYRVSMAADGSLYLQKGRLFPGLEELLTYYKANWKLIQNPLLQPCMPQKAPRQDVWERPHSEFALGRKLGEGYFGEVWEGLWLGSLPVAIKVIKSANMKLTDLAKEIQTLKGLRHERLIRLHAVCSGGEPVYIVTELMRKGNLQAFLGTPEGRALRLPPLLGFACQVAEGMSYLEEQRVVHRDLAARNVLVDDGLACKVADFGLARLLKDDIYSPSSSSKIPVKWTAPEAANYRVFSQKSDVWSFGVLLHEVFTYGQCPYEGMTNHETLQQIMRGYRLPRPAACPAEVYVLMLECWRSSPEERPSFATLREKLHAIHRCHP
T3 sequence (P42336 whole entry H1047L): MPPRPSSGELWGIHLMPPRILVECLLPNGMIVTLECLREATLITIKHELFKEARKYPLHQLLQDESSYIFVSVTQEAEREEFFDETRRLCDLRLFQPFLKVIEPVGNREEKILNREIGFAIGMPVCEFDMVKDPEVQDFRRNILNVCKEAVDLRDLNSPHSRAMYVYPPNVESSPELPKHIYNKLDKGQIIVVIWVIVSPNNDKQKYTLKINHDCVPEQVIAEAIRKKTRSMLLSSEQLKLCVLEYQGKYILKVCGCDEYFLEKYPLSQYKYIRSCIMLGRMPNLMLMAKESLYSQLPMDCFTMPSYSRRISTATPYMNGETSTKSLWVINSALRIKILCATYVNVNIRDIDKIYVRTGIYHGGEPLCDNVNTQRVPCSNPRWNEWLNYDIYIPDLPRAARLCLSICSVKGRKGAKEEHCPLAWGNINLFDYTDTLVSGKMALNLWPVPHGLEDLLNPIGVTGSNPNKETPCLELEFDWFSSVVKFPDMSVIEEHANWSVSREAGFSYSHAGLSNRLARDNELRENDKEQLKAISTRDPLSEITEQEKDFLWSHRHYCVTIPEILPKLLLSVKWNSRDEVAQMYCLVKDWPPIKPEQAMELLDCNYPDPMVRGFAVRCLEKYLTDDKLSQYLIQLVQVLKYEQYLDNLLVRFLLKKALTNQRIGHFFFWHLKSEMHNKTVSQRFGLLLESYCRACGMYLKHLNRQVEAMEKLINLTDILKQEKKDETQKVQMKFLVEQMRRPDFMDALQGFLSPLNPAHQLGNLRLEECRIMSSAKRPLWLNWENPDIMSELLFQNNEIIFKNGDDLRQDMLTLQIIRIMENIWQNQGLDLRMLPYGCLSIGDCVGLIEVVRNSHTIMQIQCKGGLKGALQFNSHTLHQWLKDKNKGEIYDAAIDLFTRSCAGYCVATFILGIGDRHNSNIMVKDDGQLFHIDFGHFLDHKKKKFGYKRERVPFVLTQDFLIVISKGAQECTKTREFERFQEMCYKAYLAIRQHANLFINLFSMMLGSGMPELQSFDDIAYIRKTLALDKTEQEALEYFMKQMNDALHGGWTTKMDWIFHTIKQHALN

SMILES	remaining binding at 1 µM [1] [%]	remaining binding at 1 µM [2] [%]	remaining binding at 1 µM [3] [%]	remaining binding at 1 µM [4] [%]	remaining binding at 1 µM [5] [%]	remaining binding at 1 µM [6] [%]	remaining binding at 1 µM [7] [%]	remaining binding at 1 µM [8] [%]	remaining binding at 1 µM [9] [%]	remaining binding at 1 µM [10] [%]
CNc1c(-c2cnn([C@H]3CCN(C(C)=O)C[C@@H]3F)c2)cnc2[nH]cc(Cl)c12 [Compound 77, 1-((3S,4S)-4-(4-(3-chloro-4-(methylamino)-1H-pyrrolo[2,3-b]pyridin-5-yl)-1H-pyrazol-1-yl)-3-fluoropiperidin-1-yl)ethan-1-one]	96	55	53	85	13	14	97	100	74	90
CNc1c(-c2ccc(C(=O)N3CCC(N4CCOCC4)CC3)cc2)cnc2[nH]cc(Cl)c12 [Compound 96, (4-(3-chloro-4-(methylamino)-1H-pyrrolo[2,3-b]pyridin-5-yl)phenyl)(4-morpholinopiperidin-1-yl)methanone]	100	13	71	69	5	47	92	99	73	100
O=C(c1ccc(-c2cnc3[nH]cc(Cl)c3c2NC2CCCC2)cc1)N1CCC(N2CCOCC2)CC1 [Compound 101, (4-(3-chloro-4-(cyclopentylamino)-1H-pyrrolo[2,3-b]pyridin-5-yl)phenyl)(4-morpholinopiperidin-1-yl)methanone]	98	88	68	100	100	38	100	99	100	72
